The values below come from patent US7928060B2, “Amylin family polypeptide-6 (AFP-6) analogs and methods of making and using them” (Amylin Pharmaceuticals, Inc., priority 2004, dated 2011).

One experiment deals with adrenomedullin receptor (Homo sapiens, UniProt O60895+Q16602). Nature of the experiment: adrenomedullin (ADM) receptor binding assay. The conditions noted are these: Table 6.
The next experiment addresses T1, calcitonin receptor (Rattus norvegicus, UniProt P32214).
T1 sequence (P32214 25-516): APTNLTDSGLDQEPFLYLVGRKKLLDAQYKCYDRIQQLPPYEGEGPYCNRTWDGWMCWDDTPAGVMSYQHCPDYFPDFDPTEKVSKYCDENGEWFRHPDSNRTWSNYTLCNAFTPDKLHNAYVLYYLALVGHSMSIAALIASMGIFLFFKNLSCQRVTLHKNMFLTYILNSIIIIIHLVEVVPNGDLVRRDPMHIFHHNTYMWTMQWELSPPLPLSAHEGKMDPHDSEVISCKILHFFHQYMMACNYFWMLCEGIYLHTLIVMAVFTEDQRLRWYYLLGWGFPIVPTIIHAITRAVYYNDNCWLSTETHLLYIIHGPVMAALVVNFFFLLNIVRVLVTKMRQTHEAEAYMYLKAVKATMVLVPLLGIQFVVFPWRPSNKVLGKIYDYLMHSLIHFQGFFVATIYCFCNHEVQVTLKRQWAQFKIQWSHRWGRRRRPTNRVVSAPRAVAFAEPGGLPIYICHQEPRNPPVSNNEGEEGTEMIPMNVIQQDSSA
Nature of the experiment: calcitonin receptor binding assay (rCalcitonin RBA). As to conditions: Table 6; read-out: CT receptor binding.

Another experiment addresses T2, amylin receptors (Rattus norvegicus, UniProt P32214).
T2 construct: This basal forebrain tissue, containing the nucleus accumbens and surrounding regions, was weighed and homogenized; from tissue; host or cells: rat basal forebrain (nucleus accumbens) membranes, male Sprague-Dawley rats
T2 sequence (P32214 25-516): T1 sequence (P32214 25-516)
Briefly: amylin radioligand binding assay (125I-rat amylin, nucleus accumbens membranes). The conditions noted are these: Table 6; read-out: Amylin receptor binding. Here is the method: Unlabeled peptides were obtained from BACHEM Inc. (Torrance, Calif.).
Male Sprague-Dawley® rats (200-250) grams were sacrificed by decapitation. Brains were removed and place in cold phosphate-buffered saline (PBS). From the ventral surface, cuts were made rostral to the hypothalamus, bounded laterally by the olfactory tracts and extending at a 45° angle medially from these tracts. […] Membranes were washed three times in fresh buffer by centrifugation for 15 minutes at 48,000×g. The final membrane pellet was resuspended in 20 mM HEPES buffer containing 0.2 mM phenylmethylsulfonyl fluoride (PMSF).
Solutions were incubated for 60 minutes at 2 C. […] Filters were washed immediately before filtration with 5 ml cold PBS, and immediately after filtration with 15 ml cold PBS. […] Competition curves were generated by measuring binding in the presence of 10^−12 to 10^−6 M unlabeled test compound and were analyzed by nonlinear regression using a 4-parameter logistic equation (INPLOT program; […] Software, San Diego, Calif.).

A further experiment concerns the target T3, CGRP receptors (Homo sapiens, UniProt O60894+Q16602).
T3 construct: membranes prepared from SK-N-MC cells, known to express CGRP receptors; endogenous in cells; host or cells: SK-N-MC cell membranes
Briefly: CGRP radioligand binding assay (125I-hCGRP, SK-N-MC cell membranes). The conditions noted are these: Table 6.

The next experiment deals with NIH/Swiss mice. Briefly: acute food intake assay in overnight-fasted mice, IP injection. The class given is in vivo, mouse. Here is the method: The effect of AFP-6 on food intake was investigated using an acute food intake assay. This assay measured food consumption in lean, group-housed, overnight-fasted NIH/Swiss mice. 12 mice were housed 3 to a cage. The sample compound, in this case AFP-6, was injected IP in mice and food intake was measured during the next 2-hours. Decreased, as well as increased, food intake can be measured. Testing various doses of the compound generated ED50's. The assay was performed as follows: 1. Remove food (water ad libitum) at 5:00 pm the evening before the study. 2. Weigh food pellets (3 pellets/cage). 3. Inject animals intraperitoneally with 200 ul of appropriate solution, t=0. 4. Immediately add pre-weighed food to each cage (away from water bottle spout) and allow animals to feed undisturbed. 5. At 30, 60, and 120 minutes, collect and weigh food. 6. Analyze data. Data points represent mean ±sd of n=12.
Twelve mice were injected IP at t=0 for each dose, 0.3, 1, 3, 10, 30, 100, or 300 nmol/kg of AFP-6 (Amylin Pharmaceuticals, Inc.) (n=12/group). Food was introduced immediately after injection and amount consumed measured at t=30, 60, and 120 min.

Bridge positions count the residues as written; N and C are the ends. Ends that are not written are not given here. Peptide text beside a SMILES is read from it. Bounds are passed on as bounds.

Chain of adrenomedullin receptor (Q16602 23-461): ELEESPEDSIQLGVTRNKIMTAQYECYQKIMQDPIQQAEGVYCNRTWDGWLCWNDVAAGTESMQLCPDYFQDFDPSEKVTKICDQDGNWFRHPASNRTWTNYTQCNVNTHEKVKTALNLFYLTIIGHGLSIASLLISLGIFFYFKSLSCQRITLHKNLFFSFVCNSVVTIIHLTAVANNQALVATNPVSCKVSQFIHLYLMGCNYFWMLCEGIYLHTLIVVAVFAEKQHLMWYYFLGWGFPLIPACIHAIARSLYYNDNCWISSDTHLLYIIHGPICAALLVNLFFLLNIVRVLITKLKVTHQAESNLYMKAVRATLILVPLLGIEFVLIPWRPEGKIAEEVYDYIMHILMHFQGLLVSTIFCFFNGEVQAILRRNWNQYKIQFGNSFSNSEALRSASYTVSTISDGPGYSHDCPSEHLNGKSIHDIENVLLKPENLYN
Chain of adrenomedullin receptor (O60895 43-175): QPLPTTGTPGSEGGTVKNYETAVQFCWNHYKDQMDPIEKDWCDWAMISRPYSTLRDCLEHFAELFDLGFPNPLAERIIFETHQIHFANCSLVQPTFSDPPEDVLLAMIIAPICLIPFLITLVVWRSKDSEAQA
T3 sequence (Q16602 23-461): as the sequence (Q16602 23-461) above
T3 sequence (O60894 27-148): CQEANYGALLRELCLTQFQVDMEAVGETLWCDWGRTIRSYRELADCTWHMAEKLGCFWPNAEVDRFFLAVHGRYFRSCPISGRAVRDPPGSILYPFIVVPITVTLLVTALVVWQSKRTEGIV

In the case of `CC(C)C[C@H](NC(=O)[C@H](CCC(N)=O)NC(=O)[C@H](Cc1c[nH]c2ccccc12)NC(=O)[C@H](CC(C)C)NC(=O)[C@H](CCCNC(=N)N)NC(=O)[C@H](Cc1c[nH]cn1)NC(=O)[C@H](CO)NC(=O)[C@H](CC(C)C)NC(=O)[C@H](CC(N)=O)NC(=O)[C@H](CCC(N)=O)NC(=O)[C@@H](NC(=O)[C@H](CCC(N)=O)NC(=O)[C@@H]1CSSC[C@H](NC(=O)CNC(=O)[C@@H](N)C(C)C)C(=O)N[C@@H](C(C)C)C(=O)N[C@@H](CC(C)C)C(=O)NCC(=O)N[C@@H]([C@@H](C)O)C(=O)N1)C(C)C)C(=O)N[C@@H](CCCNC(=N)N)C(=O)N[C@@H](CCC(N)=O)C(=O)N[C@@H](CC(=O)O)C(=O)N[C@@H](CO)C(=O)N[C@@H](C)C(=O)N1CCC[C@H]1C(=O)N[C@H](C(=O)N[C@@H](CCC(=O)O)C(=O)N1CCC[C@H]1C(=O)N[C@@H](CO)C(=O)N[C@@H](CO)C(=O)N1CCC[C@H]1C(=O)N[C@@H](Cc1c[nH]cn1)C(=O)N[C@@H](CO)C(=O)N[C@@H](Cc1ccc(O)cc1)C(N)=O)C(C)C` [compound 36] (H-VGCVLGTCQVQNLSHRLWQLRQDSAPVEPSSPHSY-NH2; disulfide 3-8 (inferred)), the results for the IC50 on adrenomedullin receptor, on calcitonin receptor and at amylin receptors were at least 1000 nM, 198 nM and 39 nM, respectively.
Turning to “TQAQLLRVGCVLGTCQVQNLSHRLWQLMGPAGRQESAPVEPSSPHSY-NH2 (disulfide 10-15 (inferred)) [compound 32]”, the figures for the IC50 at adrenomedullin receptor and on amylin receptors were 7.1 nM and 16 nM, respectively.
As to `CC(C)C[C@H](NC(=O)[C@H](CCC(N)=O)NC(=O)[C@H](Cc1c[nH]c2ccccc12)NC(=O)[C@H](CC(C)C)NC(=O)[C@H](CCCNC(=N)N)NC(=O)[C@H](Cc1c[nH]cn1)NC(=O)[C@H](CO)NC(=O)[C@H](CC(C)C)NC(=O)[C@H](CC(N)=O)NC(=O)[C@H](CCC(N)=O)NC(=O)[C@@H](NC(=O)[C@H](CCC(N)=O)NC(=O)[C@@H]1CSSC[C@H](NC(=O)CN)C(=O)N[C@@H](CC(N)=O)C(=O)N[C@@H]([C@@H](C)O)C(=O)N[C@@H](C)C(=O)N[C@@H]([C@@H](C)O)C(=O)N1)C(C)C)C(=O)N[C@@H](CCCNC(=N)N)C(=O)N[C@@H](CCC(N)=O)C(=O)N[C@@H](CC(=O)O)C(=O)N[C@@H](CO)C(=O)N[C@@H](C)C(=O)N1CCC[C@H]1C(=O)N[C@H](C(=O)N[C@@H](CCC(=O)O)C(=O)N1CCC[C@H]1C(=O)N[C@@H](CO)C(=O)N[C@@H](CO)C(=O)N1CCC[C@H]1C(=O)N[C@@H](Cc1c[nH]cn1)C(=O)N[C@@H](CO)C(=O)N[C@@H](Cc1ccc(O)cc1)C(N)=O)C(C)C` [compound 37] (H-GCNTATCQVQNLSHRLWQLRQDSAPVEPSSPHSY-NH2; disulfide 2-7 (inferred); N-terminus assumed), the values for the IC50 at adrenomedullin receptor, on calcitonin receptor and at amylin receptors were at least 1000 nM, 121 nM and 39 nM, respectively.
The matching figures for `CSCC[C@H](NC(=O)[C@H](CC(C)C)NC(=O)[C@H](CCC(N)=O)NC(=O)[C@H](Cc1c[nH]c2ccccc12)NC(=O)[C@H](CC(C)C)NC(=O)[C@H](CCCNC(=N)N)NC(=O)[C@H](Cc1c[nH]cn1)NC(=O)[C@H](CO)NC(=O)[C@H](CC(C)C)NC(=O)[C@H](CC(N)=O)NC(=O)[C@H](CCC(N)=O)NC(=O)[C@@H](NC(=O)[C@H](CCC(N)=O)NC(=O)[C@@H]1CSSC[C@H](NC(=O)CNC(=O)[C@@H](N)C(C)C)C(=O)N[C@@H](C(C)C)C(=O)N[C@@H](CC(C)C)C(=O)NCC(=O)N[C@@H]([C@@H](C)O)C(=O)N1)C(C)C)C(=O)NCC(=O)N1CCC[C@H]1C(=O)N[C@@H](C)C(=O)NCC(=O)N[C@@H](CCCNC(=N)N)C(=O)N[C@@H](CCC(N)=O)C(=O)N[C@@H](CC(=O)O)C(=O)N[C@@H](CO)C(=O)N[C@@H](C)C(=O)N1CCC[C@H]1C(=O)N[C@H](C(=O)N[C@@H](CCC(=O)O)C(=O)N1CCC[C@H]1C(=O)N[C@@H](CO)C(=O)N[C@@H](CO)C(=O)N1CCC[C@H]1C(=O)N[C@@H](Cc1c[nH]cn1)C(=O)N[C@@H](CO)C(=O)N[C@@H](Cc1ccc(O)cc1)C(N)=O)C(C)C` [compound 35] (H-VGCVLGTCQVQNLSHRLWQLMGPAGRQDSAPVEPSSPHSY-NH2; disulfide 3-8 (inferred)): 37 nM, 153 nM and 17 nM.
Take `CC(C)C[C@@H]1NC(=O)[C@H](CC(N)=O)NC(=O)CNC(=O)[C@@H](NC(=O)CN)CSSC[C@@H](C(=O)N[C@@H](CCC(N)=O)C(=O)N[C@H](C(=O)N[C@@H](CCC(N)=O)C(=O)N[C@@H](CC(N)=O)C(=O)N[C@@H](CC(C)C)C(=O)N[C@@H](CO)C(=O)N[C@@H](Cc2c[nH]cn2)C(=O)N[C@@H](CCCNC(=N)N)C(=O)N[C@@H](CC(C)C)C(=O)N[C@@H](Cc2c[nH]c3ccccc23)C(=O)N[C@@H](CCC(N)=O)C(=O)N[C@@H](CC(C)C)C(=O)N[C@@H](CCCNC(=N)N)C(=O)N[C@@H](CCC(N)=O)C(=O)N[C@@H](CC(=O)O)C(=O)N[C@@H](CO)C(=O)N[C@@H](C)C(=O)N2CCC[C@H]2C(=O)N[C@H](C(=O)N[C@@H](CCC(=O)O)C(=O)N2CCC[C@H]2C(=O)N[C@@H](CO)C(=O)N[C@@H](CO)C(=O)N2CCC[C@H]2C(=O)N[C@@H](Cc2c[nH]cn2)C(=O)N[C@@H](CO)C(=O)N[C@@H](Cc2ccc(O)cc2)C(N)=O)C(C)C)C(C)C)NC(=O)[C@H]([C@@H](C)O)NC(=O)[C@H](CO)NC1=O` [compound 39] (H-GCGNLSTCQVQNLSHRLWQLRQDSAPVEPSSPHSY-NH2; disulfide 2-8 (inferred); N-terminus assumed): the IC50 was at least 1000 nM at adrenomedullin receptor, 31 nM at calcitonin receptor and over 1000 nM at CGRP receptors.
`CSCC[C@H](NC(=O)[C@H](CC(C)C)NC(=O)[C@H](CCC(N)=O)NC(=O)[C@H](Cc1c[nH]c2ccccc12)NC(=O)[C@H](CC(C)C)NC(=O)[C@H](CCCNC(=N)N)NC(=O)[C@H](Cc1c[nH]cn1)NC(=O)[C@H](CO)NC(=O)[C@H](CC(C)C)NC(=O)[C@H](CC(N)=O)NC(=O)[C@H](CCC(N)=O)NC(=O)[C@@H](NC(=O)[C@H](CCC(N)=O)NC(=O)[C@@H]1CSSC[C@H](NC(=O)CNC(=O)[C@@H](N)C(C)C)C(=O)N[C@@H](C(C)C)C(=O)N[C@@H](CC(C)C)C(=O)NCC(=O)N[C@@H]([C@@H](C)O)C(=O)N1)C(C)C)C(=O)NCC(=O)N1CCC[C@H]1C(=O)N[C@@H](C)C(=O)NCC(=O)N[C@@H](CCCNC(=N)N)C(=O)N[C@@H](CCC(N)=O)C(=O)N[C@@H](CC(=O)O)C(=O)N[C@@H](CO)C(=O)N[C@@H](C)C(=O)N1CCC[C@H]1C(=O)N[C@H](C(=O)N[C@@H](CC(=O)O)C(=O)N1CCC[C@H]1C(=O)N[C@@H](CO)C(=O)N[C@@H](CO)C(=O)N1CCC[C@H]1C(=O)N[C@@H](Cc1c[nH]cn1)C(=O)N[C@@H](CO)C(=O)N[C@@H](Cc1ccc(O)cc1)C(N)=O)C(C)C` [compound 2]: the IC50 on adrenomedullin receptor came out at 6.4 nM; on calcitonin receptor it was 24 nM; on amylin receptors, 12 nM.
As to “Rat calcitonin: rat calcitonin, reference peptide in the food intake assay (CGNLSTCMLGTYTQDLNKFHTFPQTSIGVGAP; ends and bridges not checked; cysteine pairing not given here; UniProt P01257 85-116, looked up)”, in the experiment on NIH/Swiss mice (0.63 mg/kg, mice, not significant), the “inhibition of food intake” value is reported as 16%.
For “r/h Adrenomedullin: Amylin Family polypeptide of Table 3; r/h not resolved per value”, the “FI 30 min ED50” value in the experiment with NIH/Swiss mice (food intake, 30 min) was 18 nmol/kg. In the experiment on NIH/Swiss mice (food intake, 60 min), the “FI 60 min ED50” value amounted to 13 nmol/kg.
